Holding throughout (type): cell-based
In experiment [1] the test system is B16F10 (malignant melanoma). Nature of the experiment: Antiproliferative activity (CCK-8 cell viability), B16F10. The following applies: Mus musculus, 72 h; for inhibition at 3.3 µM: B16-F10, Compound concentration: 3.3 μM; for inhibition at 3.3 µM / inhibition at 10 µM: read-out: Antiproliferative activity in cancerous cells, B16F10 (inhibition of cell growth); for inhibition at 10 µM: B16-F10, Compound concentration: 10 μM. In outline: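 Cell growth inhibition was measured in B16F10 malignant melanoma cells with a Cell Counting Kit-8 viability assay. Cells were maintained in DMEM plus 10% fetal bovine serum, seeded at 2,000-5,000 cells/well in 96-well plates, and treated for 72 h at 37° C. Viability was expressed relative to DMSO-treated vehicle control wells.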

Experiment [2] relates to A431 (epidermoid carcinoma). Nature of the experiment: Antiproliferative activity (CCK-8 cell viability), A431. As to conditions: Homo sapiens, 72 h; for inhibition at 3.3 µM: A-431, Compound concentration: 3.3 μM; for inhibition at 3.3 µM / inhibition at 10 µM: read-out: Antiproliferative activity in cancerous cells, A431 (inhibition of cell growth); for inhibition at 10 µM: A-431, Compound concentration: 10 μM; for inhibition at 30 µM: A-431, Compound concentration: 30 μM, read-out: Antiproliferative activity in cancerous cells, A431. In outline:
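This growth inhibition assay used A431 cells maintained in Dulbecco's modified Eagle's medium plus 10% fetal bovine serum. Cells were seeded in 96-well plates, treated with compound for 72 h at 37° C., and then given 10 μL CCK-8 solution. After a further 4 h, absorbance was read at 450 nm.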

Experiment [3] relates to MDA-MB-231 (breast cancer). Description: Antiproliferative activity (CCK-8 cell viability), MDA-MB-231. The following applies: Homo sapiens, 72 h; for inhibition at 3.3 µM: Compound concentration: 3.3 μM; for inhibition at 3.3 µM / inhibition at 10 µM: read-out: Antiproliferative activity in cancerous cells, MDA-MB-231 (inhibition of cell growth); for inhibition at 10 µM: Compound concentration: 10 μM; for inhibition at 30 µM: Compound concentration: 30 μM, read-out: Antiproliferative activity in cancerous cells, MDA-MB-231. In outline: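 Growth inhibition of human MDA-MB-231 breast cancer cells was assessed with a Cell Counting Kit-8. Cells cultured in DMEM plus 10% FBS were seeded at 2,000-5,000 cells/well, treated after attachment, and kept 72 h at 37° C. CCK-8 solution (10 μL) was added for 4 h, and absorbance at 450 nm was compared with DMSO-treated controls.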

Another experiment has as its system HepG2 (liver cancer). Nature of the experiment: Antiproliferative activity (CCK-8 cell viability), HepG2. As to conditions: Homo sapiens, 72 h; for inhibition at 3.3 µM: Compound concentration: 3.3 μM; for inhibition at 3.3 µM / inhibition at 10 µM: read-out: Antiproliferative activity in cancerous cells, HepG2 (inhibition of cell growth); for inhibition at 10 µM: Compound concentration: 10 μM; for inhibition at 30 µM: Compound concentration: 30 μM, read-out: Antiproliferative activity in cancerous cells, HepG2. The method, boiled down:
(§1)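 Growth inhibition graded in bands from percent viability against DMSO vehicle, read as CCK-8 absorbance at 450 nm. Compound tested at 3.3, 10 or 30 μM for 72 h, 37 °C; media contained 10% FBS: DMEM for HepG2/SW480, MEM for HeLa, F-12K for A549.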

The next experiment concerns SW480 (colon cancer). Nature of the experiment: Antiproliferative activity (CCK-8 cell viability), SW480. The following applies: Homo sapiens, 72 h; for inhibition at 3.3 µM: Compound concentration: 3.3 μM; for inhibition at 3.3 µM / inhibition at 10 µM: read-out: Antiproliferative activity in cancerous cells, SW480 (inhibition of cell growth); for inhibition at 10 µM: Compound concentration: 10 μM; for inhibition at 30 µM: Compound concentration: 30 μM, read-out: Antiproliferative activity in cancerous cells, SW480. The method, boiled down:
as §1

Experiment [4] concerns A549 (lung adenocarcinoma). Description: Antiproliferative activity (CCK-8 cell viability), A549. The following applies: Homo sapiens, 72 h; for inhibition at 3.3 µM: Compound concentration: 3.3 μM; for inhibition at 3.3 µM / inhibition at 10 µM: read-out: Antiproliferative activity in cancerous cells, A549 (inhibition of cell growth); for inhibition at 10 µM: Compound concentration: 10 μM; for inhibition at 30 µM: Compound concentration: 30 μM, read-out: Antiproliferative activity in cancerous cells, A549. In outline:
as §1

A further experiment concerns HeLa (cervical cancer). Nature of the experiment: Antiproliferative activity (CCK-8 cell viability), HeLa. The following applies: Homo sapiens, 72 h, read-out: Antiproliferative activity in cancerous cells, HELA (inhibition of cell growth); for inhibition at 3.3 µM: Compound concentration: 3.3 μM; for inhibition at 10 µM: Compound concentration: 10 μM. In outline: as §1

Regarding `CC1=C(CC(=O)O)c2cc(Br)ccc2/C1=C\c1ccc(Oc2ccc(F)cc2)cc1` [C86, (Z)-2-(5-Bromo-1-(4-(4-fluorophenoxy)benzylidene)-2-methyl-1H-inden-3-yl)acetic acid], the inhibition at 3.3 µM is below 30% in experiment [1]; 30 to 50% in experiment [2]; below 30% in experiment [3]; below 30% with HepG2 (liver cancer); below 30% in the experiment with SW480 (colon cancer); below 30% in experiment [4]. In addition, in the experiment with HeLa (cervical cancer), the inhibition at 3.3 µM was below 30%. The inhibition at 10 µM in experiment [1] was 30 to 50%; in experiment [2], 30 to 50%; in experiment [3], below 30%; in the experiment on HepG2 (liver cancer) it was below 30%; with SW480 (colon cancer) it was below 30%; in experiment [4], below 30%. Also, the inhibition at 10 µM in the experiment with HeLa (cervical cancer) is below 30%. Moreover, the inhibition at 30 µM in experiment [1] (B16-F10, Compound concentration: 30 μM, read-out: Antiproliferative activity in cancerous cells, B16F10) was 30 to 50%; in experiment [2], 30 to 50%; in experiment [3], below 30%; with HepG2 (liver cancer), below 30%; in the experiment with SW480 (colon cancer), below 30%; in experiment [4], below 30%.

Turning to `CC1=C(CC(=O)O)c2cc(F)ccc2/C1=C\c1ccc(Oc2ccc(Cl)nc2)cc1` [C65, (Z)-2-(1-(4-((6-Chloropyridin-3-yl)oxy)benzylidene)-5-fluoro-2-methyl-1H-inden-3-yl)acetic acid], the inhibition at 3.3 µM in experiment [1] is 30 to 50%; in experiment [2], at least 50%; in experiment [3] it was below 30%; in the experiment with HepG2 (liver cancer), 30 to 50%; in the experiment on SW480 (colon cancer), below 30%; in experiment [4], below 30%. The inhibition at 3.3 µM in the experiment on HeLa (cervical cancer) fell in the range of 30 to 50%. In addition, the inhibition at 10 µM in experiment [1] was at least 50%; in experiment [2], at least 50%; in experiment [3], below 30%; with HepG2 (liver cancer), at least 50%; in the experiment on SW480 (colon cancer) it was below 30%; in experiment [4], at least 50%. For the same compound, the inhibition at 10 µM in the experiment with HeLa (cervical cancer) was at least 50%.

`CC1=C(CC(=O)O)c2cc(F)ccc2/C1=C\c1ccc(OCc2cc3ccccc3s2)cc1` [B70, (Z)-2-(1-(4-(Benzo[b]thiophen-2-ylmethoxy)benzylidene)-5-fluoro-2-methyl-1H-inden-3-yl)acetic acid]: the inhibition at 3.3 µM was at least 50% in experiment [1]; 30 to 50% in experiment [2]; 30 to 50% in experiment [3]; at least 50% in the experiment with HepG2 (liver cancer); 30 to 50% in the experiment with SW480 (colon cancer); at least 50% in experiment [4]. In addition, in the experiment with HeLa (cervical cancer), the inhibition at 3.3 µM is at least 50%. Also, the inhibition at 10 µM in experiment [1] was at least 50%; in experiment [2], 30 to 50%; in experiment [3] it was at least 50%; in the experiment on HepG2 (liver cancer), at least 50%; in the experiment on SW480 (colon cancer) it was at least 50%; in experiment [4], at least 50%. The inhibition at 10 µM with HeLa (cervical cancer) was at least 50%.

Turning to `CC1=C(CC(=O)O)c2cc(F)ccc2/C1=C\c1ccc(COCc2ccc(C(F)F)cc2)cc1` [B152, (Z)-2-(1-(4-(((4-(Difluoromethyl)benzyl)oxy)methyl)benzylidene)-5-fluoro-2-methyl-1H-inden-3-yl)acetic acid], the inhibition at 3.3 µM is below 30% in experiment [1]; 30 to 50% in experiment [2]; below 30% in experiment [3]; below 30% with HepG2 (liver cancer); 30 to 50% in the experiment with SW480 (colon cancer); below 30% in experiment [4]. The inhibition at 3.3 µM with HeLa (cervical cancer) is below 30%. The inhibition at 10 µM (in experiment [1]; in experiment [2]; in experiment [3]; with HepG2 (liver cancer); in the experiment on SW480 (colon cancer); in experiment [4]) was at least 50% each time. Moreover, the inhibition at 10 µM with HeLa (cervical cancer) is at least 50%.

With `CC1=C(CCOC(=O)n2ccnc2)c2cc(F)ccc2/C1=C\c1ccc(Oc2ccc(F)cc2)cc1` [A204, (Z)-2-(5-Fluoro-1-(4-(4-fluorophenoxy)benzylidene)-2-methyl-1H-inden-3-yl)ethyl 1H-imidazole-1-carboxylate], the inhibition at 3.3 µM (in experiment [1]; in experiment [2]; in experiment [3]; in the experiment with HepG2 (liver cancer); with SW480 (colon cancer); in experiment [4]) was below 30% throughout. Also, the inhibition at 3.3 µM in the experiment on HeLa (cervical cancer) was below 30%. The inhibition at 10 µM (in experiment [1]; in experiment [2]; in experiment [3]; in the experiment on HepG2 (liver cancer); in the experiment with SW480 (colon cancer); in experiment [4]) was below 30% in each case. In the experiment on HeLa (cervical cancer), the inhibition at 10 µM was below 30%. Further, the inhibition at 30 µM is below 30% in experiment [2]; 30 to 50% in experiment [3]; below 30% in the experiment on HepG2 (liver cancer); 30 to 50% in the experiment with SW480 (colon cancer); 30 to 50% in experiment [4].

In the case of `COc1ccc(Oc2cccc(/C=C3/C(C)=C(CC(=O)O)c4cc(Cl)ccc43)c2)cc1` [C92, (Z)-2-(5-Chloro-1-(3-(4-methoxyphenoxy)benzylidene)-2-methyl-1H-inden-3-yl)acetic acid], the inhibition at 3.3 µM in experiment [1] is below 30%; in experiment [2], at least 50%; in experiment [3], below 30%; in the experiment with HepG2 (liver cancer), at least 50%; with SW480 (colon cancer), at least 50%; in experiment [4], below 30%. Besides, the inhibition at 3.3 µM in the experiment on HeLa (cervical cancer) is at least 50%. In addition, the inhibition at 10 µM in experiment [1] is below 30%; in experiment [2], at least 50%; in experiment [3], below 30%; with HepG2 (liver cancer), at least 50%; in the experiment with SW480 (colon cancer) it was at least 50%; in experiment [4] it was at least 50%. Also, the inhibition at 10 µM with HeLa (cervical cancer) is at least 50%.

`CC1=C(CC(=O)O)c2cc(Br)ccc2/C1=C\c1ccc(COCc2ccc(Cl)cc2)cc1` [B120, (Z)-2-(5-Bromo-1-(4-(((4-chlorobenzyl)oxy)methyl)benzylidene)-2-methyl-1H-inden-3-yl)acetic acid]: the inhibition at 3.3 µM in experiment [1] was below 30%; in experiment [2] it was at least 50%; in experiment [3] it was below 30%; with HepG2 (liver cancer), 30 to 50%; in the experiment with SW480 (colon cancer), below 30%; in experiment [4], 30 to 50%. Further, the inhibition at 3.3 µM with HeLa (cervical cancer) was at least 50%. For the same compound, the inhibition at 10 µM in experiment [1] is below 30%; in experiment [2] it was at least 50%; in experiment [3], below 30%; with HepG2 (liver cancer) it was at least 50%; with SW480 (colon cancer), at least 50%; in experiment [4], at least 50%. For the same compound, the inhibition at 10 µM in the experiment with HeLa (cervical cancer) is at least 50%.

Source of the values: patent US20260184663A1, “INDENE COMPOUNDS, PHARMACEUTICAL COMPOSITIONS THEREOF, AND THEIR THERAPEUTIC APPLICATIONS” (NucMito Pharmaceuticals co. Ltd., priority 2022, published 2026).
